Measured values taken from US9604935B2, “Deuterated phenyl amino pyrimidine compound and pharmaceutical composition containing the same” (Suzhou Zelgen Biopharmaceuticals Co., Ltd., priority 2013, dated 2017).
Like-named read-outs stand apart in the source and are kept apart here. Values belong to the compound of their own block, whether it stands above or below them.

Experiment: Pharmacokinetic evaluation in rats
Format: in vivo
Conditions: male, Sprague-Dawley, rat, plasma, po, 3 mg/kg, 3 mg/kg by gavage
Method: 12 male Sprague-Dawley rats, 7-8 weeks old, of approximately 200 g body weight, were divided into three groups, four in each group.
Rats were feed with standard feed, and were given water, and were started to fast 16 hours before the test. The drug was dissolved in PEG400 and dimethylsulfoxide. Orbital blood collection was conducted, and the blood collection time is 0.25 hour, 0.5 hour, 1 hour, 2 hour, 4 hour, 6 hour, 8 hour, 12 hour, 24 hour, 36 hour and 48 hour after administration.
After inhalation of ether, the rats were shortly anesthesiaed; 300 μL of blood were collected from orbit into a test tube. There were 30 μL of 1% heparin saline solutions in the test tube. Before use, test tubes were dried overnight at 60° C. After the blood sample was collected in the subsequent time point, rats were anesthetized with ether and sacrificed.
After blood sampling, the tube was gently inverted at least 5 times immediately to ensure adequate mixing, and was placed on ice. Blood samples were 5000 rpm centrifuged at 4° C. for 5 minutes to separate the plasma and red blood cells. 100 μL of plasma was pipetted into a clean plastic centrifuge tube, and the name of compounds and the time point were indicated. Plasma was stored in −80° C. before use for the analysis. The concentration of the compound of the invention in plasma was determined with LC-MS/MS. The pharmacokinetic parameters were calculated based on the blood drug concentration of each animal at different time points.

[1] = group G1, Mean of 4 rats, read-out: AUCINF_obs
[2] = group G1, rat 1, read-out: AUCINF_obs
[3] = group G1, rat 2, read-out: AUCINF_obs
[4] = group G1, rat 3, read-out: AUCINF_obs
[5] = group G1, rat 4, read-out: AUCINF_obs
[6] = group G2, Mean of 4 rats, read-out: AUCINF_obs
[7] = group G2, rat 5, read-out: AUCINF_obs
[8] = group G2, rat 6, read-out: AUCINF_obs
[9] = group G2, rat 7, read-out: AUCINF_obs
[10] = group G2, rat 8, read-out: AUCINF_obs
[11] = group G3, Mean of 4 rats, read-out: AUCINF_obs
[12] = group G3, rat 9, read-out: AUCINF_obs
[13] = group G3, rat 10, read-out: AUCINF_obs
[14] = group G3, rat 11, read-out: AUCINF_obs
[15] = group G3, rat 12, read-out: AUCINF_obs

Structure (SMILES): [2H]C([2H])(C#N)NC(=O)c1ccc(-c2ccnc(Nc3ccc(N4CCOCC4)cc3)n2)cc1 [example 8, N-(cyano(d2-methyl))-4-(2-(4-morpholinophenylamino)pyrimidin-4-yl)benzamide]
AUC(0-t) (group G1 (Table 1), mean±SD): 2090 ± 1220 ng·h/mL
Cmax (group G1 (Table 1), mean±SD): 309 ± 175 ng/mL
AUC(0-t) (group G1, Mean of 4 rats): 2090 ng·h/mL
Cmax (group G1, Mean of 4 rats): 309 ng/mL
Tmax (group G1, Mean of 4 rats): 2.56 h
AUC(0-inf) [1]: 2120 ng·h/mL
AUC(0-t) (group G1, rat 1): 3090 ng·h/mL
Cmax (group G1, rat 1): 469 ng/mL
Tmax (group G1, rat 1): 0.25 h
AUC(0-inf) [2]: 3100 ng·h/mL
AUC(0-t) (group G1, rat 2): 574 ng·h/mL
Cmax (group G1, rat 2): 101 ng/mL
Tmax (group G1, rat 2): 4 h
AUC(0-inf) [3]: 616 ng·h/mL
AUC(0-t) (group G1, rat 3): 3050 ng·h/mL
Cmax (group G1, rat 3): 438 ng/mL
Tmax (group G1, rat 3): 4 h
AUC(0-inf) [4]: 3130 ng·h/mL
AUC(0-t) (group G1, rat 4): 1630 ng·h/mL
Cmax (group G1, rat 4): 227 ng/mL
Tmax (group G1, rat 4): 2 h
AUC(0-inf) [5]: 1640 ng·h/mL

Structure (SMILES): [2H]C([2H])(C#N)NC(=O)c1ccc(-c2ccnc(Nc3ccc(N4CC([2H])([2H])OC([2H])([2H])C4)cc3)n2)cc1 [example 6]
AUC(0-t) (group G1 (Table 1), mean±SD): 1900 ± 1100 ng·h/mL
Cmax (group G1 (Table 1), mean±SD): 282 ± 158 ng/mL
AUC(0-t) (group G1, Mean of 4 rats): 1900 ng·h/mL
Cmax (group G1, Mean of 4 rats): 282 ng/mL
Tmax (group G1, Mean of 4 rats): 2.56 h
AUC(0-inf) [1]: 1940 ng·h/mL
AUC(0-t) (group G1, rat 1): 2730 ng·h/mL
Cmax (group G1, rat 1): 423 ng/mL
Tmax (group G1, rat 1): 0.25 h
AUC(0-inf) [2]: 2740 ng·h/mL
AUC(0-t) (group G1, rat 2): 514 ng·h/mL
Cmax (group G1, rat 2): 94.6 ng/mL
Tmax (group G1, rat 2): 4 h
AUC(0-inf) [3]: 561 ng·h/mL
AUC(0-t) (group G1, rat 3): 2840 ng·h/mL
Cmax (group G1, rat 3): 403 ng/mL
Tmax (group G1, rat 3): 4 h
AUC(0-inf) [4]: 2920 ng·h/mL
AUC(0-t) (group G1, rat 4): 1520 ng·h/mL
Cmax (group G1, rat 4): 207 ng/mL
Tmax (group G1, rat 4): 2 h
AUC(0-inf) [5]: 1530 ng·h/mL

Structure (SMILES): N#CCNC(=O)c1ccc(-c2ccnc(Nc3ccc(N4CCOCC4)cc3)n2)cc1 [example 9, N-(cyanomethyl)-4-(2-(4-morpholinophenylamino)pyrimidin-4-yl)benzamide, reference compound]
AUC(0-t) (group G1 (Table 1), mean±SD): 1620 ± 932 ng·h/mL
Cmax (group G1 (Table 1), mean±SD): 245 ± 140 ng/mL
AUC(0-t) (group G1, Mean of 4 rats): 1620 ng·h/mL
Cmax (group G1, Mean of 4 rats): 245 ng/mL
Tmax (group G1, Mean of 4 rats): 2.56 h
AUC(0-inf) [1]: 1650 ng·h/mL
AUC(0-t) (group G1, rat 1): 2290 ng·h/mL
Cmax (group G1, rat 1): 368 ng/mL
Tmax (group G1, rat 1): 0.25 h
AUC(0-inf) [2]: 2300 ng·h/mL
AUC(0-t) (group G1, rat 2): 443 ng·h/mL
Cmax (group G1, rat 2): 79.4 ng/mL
Tmax (group G1, rat 2): 4 h
AUC(0-inf) [3]: 480 ng·h/mL
AUC(0-t) (group G1, rat 3): 2440 ng·h/mL
Cmax (group G1, rat 3): 354 ng/mL
Tmax (group G1, rat 3): 4 h
AUC(0-inf) [4]: 2510 ng·h/mL
AUC(0-t) (group G1, rat 4): 1320 ng·h/mL
Cmax (group G1, rat 4): 180 ng/mL
Tmax (group G1, rat 4): 2 h
AUC(0-inf) [5]: 1330 ng·h/mL
AUC(0-t) (group G2 (Table 2), mean±SD): 3210 ± 744 ng·h/mL
Cmax (group G2 (Table 2), mean±SD): 589 ± 190 ng/mL
AUC(0-t) (group G2, Mean of 4 rats): 3210 ng·h/mL
Cmax (group G2, Mean of 4 rats): 589 ng/mL
Tmax (group G2, Mean of 4 rats): 3.5 h
AUC(0-inf) [6]: 3240 ng·h/mL
AUC(0-t) (group G2, rat 5): 4080 ng·h/mL
Cmax (group G2, rat 5): 858 ng/mL
Tmax (group G2, rat 5): 2 h
AUC(0-inf) [7]: 4110 ng·h/mL
AUC(0-t) (group G2, rat 6): 3320 ng·h/mL
Cmax (group G2, rat 6): 567 ng/mL
Tmax (group G2, rat 6): 4 h
AUC(0-inf) [8]: 3340 ng·h/mL
AUC(0-t) (group G2, rat 7): 3180 ng·h/mL
Cmax (group G2, rat 7): 514 ng/mL
Tmax (group G2, rat 7): 4 h
AUC(0-inf) [9]: 3210 ng·h/mL
AUC(0-t) (group G2, rat 8): 2270 ng·h/mL
Cmax (group G2, rat 8): 415 ng/mL
Tmax (group G2, rat 8): 4 h
AUC(0-inf) [10]: 2300 ng·h/mL
AUC(0-t) (group G3 (Table 3), mean±SD): 2190 ± 814 ng·h/mL
Cmax (group G3 (Table 3), mean±SD): 365 ± 146 ng/mL
AUC(0-t) (group G3, Mean of 4 rats): 2190 ng·h/mL
Cmax (group G3, Mean of 4 rats): 365 ng/mL
Tmax (group G3, Mean of 4 rats): 3.5 h
AUC(0-inf) [11]: 2240 ng·h/mL
AUC(0-t) (group G3, rat 9): 3420 ng·h/mL
Cmax (group G3, rat 9): 579 ng/mL
Tmax (group G3, rat 9): 4 h
AUC(0-inf) [12]: 3480 ng·h/mL
AUC(0-t) (group G3, rat 10): 1800 ng·h/mL
Cmax (group G3, rat 10): 336 ng/mL
Tmax (group G3, rat 10): 4 h
AUC(0-inf) [13]: 1850 ng·h/mL
AUC(0-t) (group G3, rat 11): 1750 ng·h/mL
Cmax (group G3, rat 11): 276 ng/mL
Tmax (group G3, rat 11): 2 h
AUC(0-inf) [14]: 1800 ng·h/mL
AUC(0-t) (group G3, rat 12): 1810 ng·h/mL
Cmax (group G3, rat 12): 270 ng/mL
Tmax (group G3, rat 12): 4 h
AUC(0-inf) [15]: 1840 ng·h/mL

Structure (SMILES): [2H]C([2H])(C#N)NC(=O)c1ccc(-c2ccnc(Nc3ccc(N4C([2H])([2H])C([2H])([2H])OC([2H])([2H])C4([2H])[2H])cc3)n2)cc1 [example 3, N-(cyano(d2-methyl))-4-(2-(4-(d8-morpholino)phenylamino)pyrimidin-4-yl)benzamide]
AUC(0-t) (group G3 (Table 3), mean±SD): 2720 ± 922 ng·h/mL
Cmax (group G3 (Table 3), mean±SD): 447 ± 170 ng/mL
AUC(0-t) (group G3, Mean of 4 rats): 2720 ng·h/mL
Cmax (group G3, Mean of 4 rats): 447 ng/mL
Tmax (group G3, Mean of 4 rats): 3.5 h
AUC(0-inf) [11]: 2790 ng·h/mL
AUC(0-t) (group G3, rat 9): 4100 ng·h/mL
Cmax (group G3, rat 9): 694 ng/mL
Tmax (group G3, rat 9): 4 h
AUC(0-inf) [12]: 4180 ng·h/mL
AUC(0-t) (group G3, rat 10): 2300 ng·h/mL
Cmax (group G3, rat 10): 419 ng/mL
Tmax (group G3, rat 10): 4 h
AUC(0-inf) [13]: 2350 ng·h/mL
AUC(0-t) (group G3, rat 11): 2190 ng·h/mL
Cmax (group G3, rat 11): 329 ng/mL
Tmax (group G3, rat 11): 2 h
AUC(0-inf) [14]: 2260 ng·h/mL
AUC(0-t) (group G3, rat 12): 2290 ng·h/mL
Cmax (group G3, rat 12): 344 ng/mL
Tmax (group G3, rat 12): 4 h
AUC(0-inf) [15]: 2350 ng·h/mL

Further lines, results first:

AUC(0-t) (group G2 (Table 2), mean±SD): 5390 ± 1230 ng·h/mL
Cmax (group G2 (Table 2), mean±SD): 972 ± 307 ng/mL
AUC(0-t) (group G2, Mean of 4 rats): 5390 ng·h/mL
Cmax (group G2, Mean of 4 rats): 972 ng/mL
Tmax (group G2, Mean of 4 rats): 3.5 h
AUC(0-inf) [6]: 5440 ng·h/mL
AUC(0-t) (group G2, rat 5): 6820 ng·h/mL
Cmax (group G2, rat 5): 1410 ng/mL
Tmax (group G2, rat 5): 2 h
AUC(0-inf) [7]: 6850 ng·h/mL
AUC(0-t) (group G2, rat 6): 5460 ng·h/mL
Cmax (group G2, rat 6): 922 ng/mL
Tmax (group G2, rat 6): 4 h
AUC(0-inf) [8]: 5490 ng·h/mL
AUC(0-t) (group G2, rat 7): 5470 ng·h/mL
Cmax (group G2, rat 7): 875 ng/mL
Tmax (group G2, rat 7): 4 h
AUC(0-inf) [9]: 5520 ng·h/mL
AUC(0-t) (group G2, rat 8): 3810 ng·h/mL
Cmax (group G2, rat 8): 686 ng/mL
Tmax (group G2, rat 8): 4 h
AUC(0-inf) [10]: 3900 ng·h/mL
Structure (SMILES): [2H]C1([2H])COCC([2H])([2H])N1c1ccc(Nc2nccc(-c3ccc(C(=O)NCC#N)cc3)n2)cc1 [example 5, N-(cyanomethyl)-4-(2-(4-(2′,2′,6′,6′-d4-morpholino)phenylamino)pyrimidin-4-yl)benzamide]

AUC(0-t) (group G3 (Table 3), mean±SD): 3960 ± 1480 ng·h/mL
Cmax (group G3 (Table 3), mean±SD): 653 ± 275 ng/mL
AUC(0-t) (group G3, Mean of 4 rats): 3960 ng·h/mL
Cmax (group G3, Mean of 4 rats): 653 ng/mL
Tmax (group G3, Mean of 4 rats): 3.5 h
AUC(0-inf) [11]: 4060 ng·h/mL
AUC(0-t) (group G3, rat 9): 6170 ng·h/mL
Cmax (group G3, rat 9): 1060 ng/mL
Tmax (group G3, rat 9): 4 h
AUC(0-inf) [12]: 6300 ng·h/mL
AUC(0-t) (group G3, rat 10): 3250 ng·h/mL
Cmax (group G3, rat 10): 596 ng/mL
Tmax (group G3, rat 10): 4 h
AUC(0-inf) [13]: 3370 ng·h/mL
AUC(0-t) (group G3, rat 11): 3160 ng·h/mL
Cmax (group G3, rat 11): 476 ng/mL
Tmax (group G3, rat 11): 2 h
AUC(0-inf) [14]: 3250 ng·h/mL
AUC(0-t) (group G3, rat 12): 3240 ng·h/mL
Cmax (group G3, rat 12): 483 ng/mL
Tmax (group G3, rat 12): 4 h
AUC(0-inf) [15]: 3320 ng·h/mL
Structure (SMILES): [2H]C1([2H])OC([2H])([2H])C([2H])([2H])N(c2ccc(Nc3nccc(-c4ccc(C(=O)NCC#N)cc4)n3)cc2)C1([2H])[2H] [example 1, N-(cyanomethyl)-4-(2-(4-(d8-morpholino)phenylamino)pyrimidine-4-yl)benzamide]
